Experimental data from patent US20230372318A1, “METHODS FOR TREATING A SUBJECT HAVING MULTIPLE SYSTEM ATROPHY” (Theravance Biopharma R&D IP, LLC, priority 2022, published 2023).

Tests used:
human recombinant SERT = biological target: T1, human recombinant SERT (Homo sapiens, UniProt P31645); test: Radioligand binding, [3H]-citalopram, HEK293-hSERT membranes; conditions: mean (95% confidence intervals)
T1 construct: expressed in transfected cells; host or cells: HEK293
Text: The in vitro pharmacology of ampreloxetine at human recombinant and rat native monoamine transporters was characterized as described in Smith et al., Inter. J. Neuropsychopharmcol. (2015) 1-11; and Tsuruda et al., J. Pharmacol. Toxicol. Meth. (2010) 61:192-204. See also, e.g., U.S. Pat. Nos. 8,304,432 B2 and 8,304,433 B2. Radioligands were sourced commercially (Perkin Elmer LifeSciences or GE Healthcare Life Sciences).
Briefly, membranes prepared from HEK293 (Human Embryonic Kidney 293) or CHO-K1 (Chinese Hamster Ovary-K1) cells stably transfected with human recombinant SERT (HEK293-hSERT), NET (HEK293-hNET), or DAT (CHO-K1-hDAT) were incubated for 1 hr at 22° C. in the absence, or presence, of 4-[2-(2,4,6-trifluorophenoxymethyl)phenyl]piperidine and [^3H]-citalopram (1.0 nM) for SERT, [^3H]-nisoxetine (2.0 nM) for NET, and [^3H]-WIN35428 (3.0 nM) for DAT in 50 mM Tris-HCl, 120 mM NaCl, 5 mM KCl, 0.025% BSA, 100 μM ascorbic acid, pH 7.4. Rat cortical membrane preparations were incubated with [^3H]-citalopram (2.0 nM) for SERT or [^3H]-nisoxetine (4.0 nM) for NET for 1 hr at 22° C. […] Binding and uptake assays were terminated by rapid filtration and radioactivity determined by liquid scintillation spectroscopy. […] Selectivity for NET (rounded to one significant figure) was determined as follows: […]

[1] = test system: heart rate (HR) and mean arterial pressure (MAP); test: Cardiovascular model in anesthetized rat: intrinsic effect on MAP and HR; format: in vivo; conditions: anesthetized rats
Experimental: These studies were conducted to assess the effect of a single administration of ampreloxetine on heart rate (HR) and mean arterial pressure (MAP) in anesthetized rats. Using this cardiovascular model, the intrinsic effect on HR and the inhibition of tyramine pressor response were evaluated as surrogate measures that reflect the ability of ampreloxetine to inhibit norepinephrine transporters in the periphery.
Normotensive male Sprague-Dawley rats weighing between 250-350 g were anesthetized with an intraperitoneal injection (IP) of thiobutabarbital (Inactin). All animals were kept under complete anesthesia (i.e., absence of response to toe pinch test) for the surgery and for the duration of the study. The right common carotid artery and jugular vein were isolated and catheterized. The trachea was intubated to keep the airway open during the study. After completion of surgery, the arterial catheter was connected to a pressure transducer and baseline blood pressure [Systolic (SBP), Mean Arterial (MAP) and Diastolic (DBP)] and heart rate (HR) were recorded using the Notocord-HEM data acquisition system. Following at least 60 min of baseline (i.e., the last 10 min was stable), vehicle (10% Tween20, 2 mL/kg, IP) was administered and any potential effect was monitored for at least 10 min. After this period, rats were injected with either vehicle or ampreloxetine ([…], 2 mL/kg, IP) and changes in MAP and HR were monitored for 25 min. Rats were then challenged intravenously via the jugular vein catheter, with non-cumulative bolus doses of tyramine (0.03, 0.1, 0.3, and 1 mg/kg, 1 mL/kg, IV) given at 5 min intervals. After the last dose of tyramine, data acquisition continued for another 10 min before the experiment was terminated. In a separate group of animals, blood was collected to assess the concentration of ampreloxetine in plasma at 15 min and 60 min after dosing. Free plasma concentrations obtained from 15 min were used to construct the concentration response curve (CRC) to MAP and HR while concentrations from 60 min were used for the tyramine CRC. Animals were euthanized by carbon dioxide asphyxiation followed by thoracotomy.
Intrinsic hemodynamic effects were reported as the maximum change in MAP or HR induced by ampreloxetine before tyramine challenge. Inhibition of tyramine effect was normalized to the response to 1 mg/kg dose of tyramine in the vehicle control group. Concentration response curves (CRCs) of the change in MAP, HR and inhibition of tyramine response were analyzed through iterative curve fitting to a logistic equation using Prism 5.00™ (GraphPad, Inc.). The equation used was as follows:
Y=(Bottom+Top−Bottom)/(1+10^((Log EC50−X)*HillSlope)) […]

T1 sequence (P31645 whole entry): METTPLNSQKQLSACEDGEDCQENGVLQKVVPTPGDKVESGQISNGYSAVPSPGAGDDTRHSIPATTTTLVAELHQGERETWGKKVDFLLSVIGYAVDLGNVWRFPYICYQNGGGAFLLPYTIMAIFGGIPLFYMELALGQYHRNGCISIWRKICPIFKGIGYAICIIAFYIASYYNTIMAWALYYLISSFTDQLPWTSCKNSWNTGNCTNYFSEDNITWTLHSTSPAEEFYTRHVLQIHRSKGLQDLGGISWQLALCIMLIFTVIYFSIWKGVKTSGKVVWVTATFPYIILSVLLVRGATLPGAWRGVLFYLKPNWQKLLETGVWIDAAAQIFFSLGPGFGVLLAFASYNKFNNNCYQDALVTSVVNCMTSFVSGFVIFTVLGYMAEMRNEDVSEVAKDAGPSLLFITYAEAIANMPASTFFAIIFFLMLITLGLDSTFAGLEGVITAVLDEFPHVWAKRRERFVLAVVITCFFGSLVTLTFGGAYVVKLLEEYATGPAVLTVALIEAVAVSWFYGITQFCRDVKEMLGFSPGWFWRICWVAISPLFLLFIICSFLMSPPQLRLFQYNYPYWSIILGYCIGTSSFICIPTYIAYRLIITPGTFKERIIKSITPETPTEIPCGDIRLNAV

SMILES: Fc1cc(F)c(OCc2ccccc2C2CCNCC2)c(F)c1 [Ampreloxetine, 4-[2-(2,4,6-trifluorophenoxymethyl)phenyl]piperidine]
- Transporter Binding: pKi, SERT (human recombinant SERT): 8.5 (8.5, 8.6)
- Effect on MAP and HR ([1]; 0.01-30 mg/kg IP): dose dependently increased MAP and HR
- Maximum change in HR ([1]; 0.01-30 mg/kg IP): 28.1 (22.4-33.7) bpm
- Maximum change in MAP ([1]; 0.01-30 mg/kg IP): 13.2 (4.4-22.1) mm Hg
- HR potency (HR EC25), free plasma concentration giving 25 bpm change in HR ([1]; IP, free plasma concentration at 15 min): 8.6 nM
